Columns and labels:
[1] = test system: Puccinia recondita; assay: Puccinia test (wheat)/protective; type: in vivo; details: 240 h, protective, application rate 500 g/ha, evaluation 10 days after inoculation, read-out: Efficacy in %
Procedure: [table] To produce a suitable preparation of active compound, 1 part by weight of active compound is mixed with the stated amounts of solvent and emulsifier, and the concentrate is diluted with water to the desired concentration. To test for protective activity, young plants are sprayed with the preparation of active compound at the stated application rate. After the spray coating has dried on, the plants are sprayed with a conidia suspension Puccinia recondita. The plants remain in an incubation cabin at 20° C. and 100% relative atmospheric humidity for 48 hours. The plants are then placed in a greenhouse at a temperature of about 20° C. and a relative atmospheric humidity of 80% to promote the development of rust pustules. Evaluation is carried out 10 days after the inoculation. 0% means an efficacy which corresponds to that of the control, whereas an efficacy of 100% means that no infection is observed.

[2] = test system: Alternaria solani; assay: Alternaria test (tomato)/protective; type: in vivo; details: protective, application rate 750 g/ha, evaluation 7 days after inoculation
Procedure: [table] To produce a suitable preparation of active compound, 1 part by weight of active compound is mixed with the stated amounts of solvent and emulsifier, and the concentrate is diluted with water to the desired concentration. To test for protective activity, young tomato plants are sprayed with the preparation of active compound at the stated application rate. One day after the treatment, the plants are inoculated with a spore suspension of Alternaria solani and then remain at 100% relative humidity and at 20° C. for 24 hours. The plants then remain at 96% relative atmospheric humidity and a temperature of 20° C. Evaluation is carried out 7 days after the inoculation. 0% means an efficacy which corresponds to that of the control, whereas an efficacy of 100% means that no infection is observed.

| SMILES | pest or weed control at 500 g/ha [1] [%] | Efficacy in % [2] [%] |
| --- | --- | --- |
| O=C(Nc1ccccc1-c1ccc(Br)c(Cl)c1)c1ccsc1I [drawing 265] | 100 |  |
| CC(C)(C)CCc1cc(F)ccc1NC(=O)c1ccsc1I [drawing 266] | 100 |  |
| O=C(Nc1ccccc1-c1ccc(Cl)cc1)c1ccoc1I [drawing 267] | 100 |  |
| O=C(Nc1ccccc1-c1ccc(Br)cc1)c1ccoc1I [drawing 268] | 100 |  |
| CC(CC(C)(C)C)c1ccccc1NC(=O)c1ccoc1I (centres unmarked) [drawing 269] | 100 |  |
| O=C(Nc1ccccc1-c1ccc(Cl)c(F)c1)c1ccoc1I [drawing 270] | 100 |  |
| O=C(Nc1ccccc1-c1ccc(Cl)c(Cl)c1)c1ccsc1I [drawing 271] | 100 |  |
| CC(CC(C)(C)C)c1ccccc1NC(=O)c1ccsc1I (centres unmarked) [drawing 272] | 100 |  |
| C=C(CC(C)(C)C)c1ccccc1NC(=O)c1ccsc1I [drawing 273] | 93 |  |
| O=C(Nc1ccccc1-c1ccc(Cl)c(F)c1)c1ccsc1I [drawing 274] | 94 |  |
| CC(C[Si](C)(C)C)c1ccccc1NC(=O)c1ccoc1I (centres unmarked) [drawing 275] | 100 |  |
| CC(C[Si](C)(C)C)c1ccccc1NC(=O)c1ccsc1I (centres unmarked) [drawing 276] | 100 |  |
| O=C(Nc1ccc(F)cc1-c1ccc(Cl)c(Cl)c1)c1ccsc1I [drawing 277] | 100 |  |
| CC1CC(C)(C)c2cccc(NC(=O)c3ccsc3I)c21 (centres unmarked) [drawing 278] | 100 |  |
| CC(C)CC(C)c1cc(F)ccc1NC(=O)c1ccsc1I (centres unmarked) [drawing 279] | 100 |  |
| CO/N=C/c1ccc(-c2ccccc2NC(=O)c2ccsc2I)cc1F [drawing 280] | 100 |  |
| CC(C)CC(C)c1sccc1NC(=O)c1ccsc1I (centres unmarked) [drawing 281] | 100 |  |
| CC(C)CC(C)c1ccccc1NC(=O)c1ccsc1Br (centres unmarked) [drawing 282] | 100 |  |
| CC(CC(C)(C)C)c1ccccc1NC(=O)c1ccsc1Br (centres unmarked) [drawing 283] | 100 |  |
| O=C(Nc1ccccc1-c1ccc(Cl)c(Cl)c1)c1ccsc1Br [drawing 284] | 100 |  |
| O=C(Nc1ccccc1-c1ccc(Cl)c(F)c1)c1ccsc1Br [drawing 285] | 100 |  |
| O=C(Nc1ccccc1-c1ccc(F)c(Cl)c1)c1ccsc1I [drawing 286] | 100 |  |
| CC(C[Si](C)(C)C)c1cc(F)ccc1NC(=O)c1ccsc1I (centres unmarked) [drawing 287] | 100 |  |
| CC(C)(C)CCc1ccccc1NC(=O)c1ccsc1I [drawing 288] |  | 94 |
| CC(C)CC(C)c1ccccc1NC(=O)c1ccsc1I (centres unmarked) [drawing 289] |  | 100 |
| CC(C)CC(C)c1ccccc1NC(=O)c1ccoc1I (centres unmarked) [drawing 290] |  | 94 |
